Assay results: patent US10259856B2, “Protease stabilized acylated insulin analogues” (priority 2008, dated 2019)

What was measured:
[1] = target: T1, human insulin receptor (IR-A) (Homo sapiens, UniProt P06213); assay: Insulin receptor affinity, SPA antibody capture assay (0% HSA); assay type: binding; details: affinity relative to human insulin
Method: (§1) The affinity of the acylated insulin analogues of this invention for the human insulin receptor is determined by a SPA assay (Scintillation Proximity Assay) microtiterplate antibody capture assay. […] Reagent mix for a single Packard Optiplate (Packard No. 6005190) is composed of 2.4 μl of a 1:5000 diluted purified recombinant human insulin receptor (either with or without exon 11), an amount of a stock solution of A14Tyr[^125I]-human insulin corresponding to 5000 cpm per 100 μl of reagent mix, 12 μl of a 1:1000 dilution of F12 antibody, 3 ml of SPA-beads and binding buffer to a total of 12 ml. A total of 100 μl reagent mix is then added to each well in the Packard Optiplate and a dilution series of the insulin derivative is made in the Optiplate from appropriate samples. The samples are then incubated for 16 hours while gently shaken. The phases are the then separated by centrifugation for 1 min and the plates counted in a Topcounter. The binding data were fitted using the nonlinear regression algorithm in the GraphPad Prism 2.01 (GraphPad Software, San Diego, Calif.) and affinities are expressed relative (in percentage (%)) to the affinity of human insulin.

[2] = Hydrophobicity by reverse phase HPLC under isocratic conditions; assay type: physicochemical; details: isocratic RP-HPLC, pH 7.3; human insulin as reference (k'rel = 1)
Method: The void time of the HPLC system, t0, is determined by injecting 5 μl of 0.1 mM NaNO3. Running conditions:
Column: Lichrosorb RP-C18, 5 μm, 4×250 mm
Buffer A: 0.1 M natrium phosphate pH 7.3, 10 vol % CH3CN

[3] = target: T1, human insulin receptor (IR-A); assay: Insulin receptor affinity, SPA assay with binding buffer containing 4.5% HSA; details: 4.5% HSA in binding buffer; affinity relative to human insulin
Method: as §1

T1 sequence (P06213 28-746 isoform P06213-2 limits assumed): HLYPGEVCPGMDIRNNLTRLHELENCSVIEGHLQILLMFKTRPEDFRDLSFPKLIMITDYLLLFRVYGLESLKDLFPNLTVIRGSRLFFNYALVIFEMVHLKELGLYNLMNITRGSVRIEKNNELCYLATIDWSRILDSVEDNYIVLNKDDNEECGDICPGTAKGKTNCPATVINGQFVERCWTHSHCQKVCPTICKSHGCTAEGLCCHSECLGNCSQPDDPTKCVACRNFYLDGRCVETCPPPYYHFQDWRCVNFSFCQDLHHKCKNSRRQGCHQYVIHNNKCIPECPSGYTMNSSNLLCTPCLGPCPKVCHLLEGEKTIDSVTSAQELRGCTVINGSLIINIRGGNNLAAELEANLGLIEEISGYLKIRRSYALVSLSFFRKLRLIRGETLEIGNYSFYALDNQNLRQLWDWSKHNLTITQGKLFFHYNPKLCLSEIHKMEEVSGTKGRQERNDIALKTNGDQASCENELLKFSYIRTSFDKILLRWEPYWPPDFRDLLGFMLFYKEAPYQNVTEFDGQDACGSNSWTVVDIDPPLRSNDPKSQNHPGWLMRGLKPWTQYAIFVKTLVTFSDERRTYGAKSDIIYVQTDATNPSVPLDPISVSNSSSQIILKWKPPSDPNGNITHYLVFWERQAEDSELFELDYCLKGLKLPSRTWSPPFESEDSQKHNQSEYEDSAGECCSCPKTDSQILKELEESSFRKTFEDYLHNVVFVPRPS
T1 sequence (P06213 763-1382 partner limits assumed): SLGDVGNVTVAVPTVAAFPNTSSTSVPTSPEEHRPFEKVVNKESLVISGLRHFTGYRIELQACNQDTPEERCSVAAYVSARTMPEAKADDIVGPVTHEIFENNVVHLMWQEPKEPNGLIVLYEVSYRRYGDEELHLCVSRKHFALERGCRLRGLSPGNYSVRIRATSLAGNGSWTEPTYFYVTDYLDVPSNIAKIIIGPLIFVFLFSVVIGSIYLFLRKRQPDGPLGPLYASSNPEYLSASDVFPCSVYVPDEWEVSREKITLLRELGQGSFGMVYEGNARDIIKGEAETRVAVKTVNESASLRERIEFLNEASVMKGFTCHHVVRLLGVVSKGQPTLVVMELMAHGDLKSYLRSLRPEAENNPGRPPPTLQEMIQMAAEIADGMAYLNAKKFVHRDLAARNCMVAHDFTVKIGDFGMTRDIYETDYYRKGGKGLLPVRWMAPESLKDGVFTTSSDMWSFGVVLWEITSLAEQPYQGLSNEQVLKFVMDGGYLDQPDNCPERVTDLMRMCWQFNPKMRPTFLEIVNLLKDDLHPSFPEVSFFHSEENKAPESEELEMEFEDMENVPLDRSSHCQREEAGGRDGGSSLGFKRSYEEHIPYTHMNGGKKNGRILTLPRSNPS

Substance | Relative IR-A affinity (@ 0% HSA) (%) [1] | Relative hydrophobicity, k'relderiv [2] | Relative IR-A affinity (@ 4.5% HSA) (%) [3]
A14E, B25H, B29K(N^ε3-Carboxy-5-octadecanedioylaminobenzoyl), desB30 Human Insulin [Example 4] | 3.4% | .48 | –
A14E, B25H, B29K(N^ε4-([4-({19-Carboxynonadecanoylamino}methyl)trans-cyclohexane-carbonyl-]-γGlu-γGlu), desB30 Human Insulin [Example 12] | 1.7% | .94 | –
A14E, B25H, B29K(N^ε4-([4-({19-Carboxynonadecanoylamino}methyl)trans-cyclohexanecarbonyl]-γGlu), desB30 Human Insulin [Example 7] | 2.1% | 2.78 | –
A14E, B25H, B29K(N^ε (N-Octadecandioyl-N-carboxymethyl)-beta-alanyl), desB30 Human Insulin [Example 6] | 2.6% | – | .04%
A14E, B25H, B29K(N^ε(5-Eicosanedioylaminoisophthalic acid)), desB30 Human Insulin [Example 47] | 1.2% | – | 0.10%
A14E, B25H, B29K(N^εEicosanedioyl-Aoc), desB30 Human Insulin [Example 53] | 2.3% | – | 0.03%
A14E, B25H, B29K(N^εMyristyl), desB30 Human Insulin [Example 10] | 9.5% | 14.60 | –
A14E, B25H, B29K(N^εOctadecanedioyl-γGlu-Abu-Abu-Abu-Abu), desB30 Human Insulin [Example 41] | 1.6% | – | .31%
A14E, B25H, B29K(N^εeicosanedioyl-γGlu-(3-(2-{2-[2-(2-aminoethoxy)ethoxy]ethoxy}ethoxy)propionyl-γGlu), desB30 Human Insulin [Example 17] | .9% | .57 | –
A14E, B25H, B29K(N^εoctadecandioyl-γGlu-PEG7), desB30 Human Insulin [Example 15] | 1.9% | .43 | –
A14E, B25H, B29K(N^ε—N-octadecandioyl-N-(2-carboxyethyl)glycyl), desB30 Human Insulin [Example 5] | 2.5% | .23 | –
